Values joined by “and” are separate entries in the source; they are usually repeats but may differ in a detail not shown here. Equal entries are not always repeated. Where two headings read alike, the source gives them in different places.
Assays:
Format in all cases: cell-based
[1] = test system: RKO; assay: Cell counts, RKO
Procedure: (§1) As a result, LC-50 curves were generated in the 1st week.
(§2) In the 2nd plate, 7 d of the 1st week (LC-50) is the same as 0 h of the 2nd week (recovery).
At 0 h of the 2nd week, medium was exchanged with untreated medium for the remainder of the experiment. The untreated controls were not measured in the 2nd week (recovery) due to overconfluence by the end of the 1st week. As a result, Recovery curves were generated in the 2nd week.

[2] = test system: TT; assay: Cell counts, TT
Procedure: as §1, §2
(§3) At 0 h of the 2nd week, medium was exchanged with untreated medium for the remainder of the experiment. […] As a result, Recovery curves were generated in the 2nd week.

[3] = test system: CCD-1074sk; conditions: for cell counts: single count
Procedure: as §1, §2, §3

[4] = test system: TT; assay: XTT cell viability assay, TT; conditions: 1st week (LC50); for The absorbance, group - Blank: mean minus blank; for The absorbance: single value
Procedure: Cancer cell lines HCC 1419, MCF-7, MDA-MB-468, SKBR3, PC3, HT1299, Saos-2, C-6, AsPc, MDA-MB-231, RKO, HeLa and TT, and normal cell lines HME 50 HT, BJ and CCD-1074sk were tested for changes in metabolism (XTT assay) and cell death (cell counts).
Cells were plated into 48-well Corning CellBind™ plates at densities of 20,000 cells for normal cells and 10,000˜20,000 cells for cancer cells. 24 to 48 h after plating, cells were treated with the composition according to the invention at concentrations of 4.5e-2M. The first time point treated with the composition of the invention is 0 h. At 3 days after the first treatment with the composition of the invention, medium was changed and the composition of the invention at the same concentrations were added to the cultured cells.
Cells were seeded in a 96-well tissue culture plate at a density of 10,000 cells for normal cells and 5,000 cells for cancer cells. After incubation period, the formazan dye formed was quantitated using an ELISA reader. The optimal wavelength used in experiments was 500 nm, and it was measured at 0 h, 12 h, 24 h, 48 h, 4 d and 7 d, respectively. The obtained values were generated using the software SoftMax Pro 4.8.
The cell viability was calculated according to the manufacturer's instructions as follows (the term “blank” means XTT in medium only):
Cellular cytotoxicity was calculated according to the manufacturer's instructions as follows:

Compound: CC(=O)O[C@H]1C(=O)[C@@]2(C)[C@H]([C@H](OC(=O)c3ccccc3)[C@]3(O)C[C@H](OC(=O)[C@H](O)[C@@H](NC(=O)c4ccccc4)c4ccccc4)C(C)=C1C3(C)C)[C@]1(OC(C)=O)CO[C@@H]1C[C@@H]2O [Taxol]
- cell counts ([1]; 1st week (LC50), 0 h): 48000 and 49000 and 54000
- cell counts, Mean value ([1]; 1st week (LC50), 0 h): 50333
- cell counts ([1]; 1st week (LC50), 24 h): 101600 and 98000 and 99800
- cell counts, Mean value ([1]; 1st week (LC50), 24 h): 99800
- cell counts, Mean value ([1]; 1st week (LC50), 48 h): 78733
- cell counts ([1]; 1st week (LC50), 4 d): 36000
- cell counts, Mean value ([1]; 1st week (LC50), 4 d): 36000
- cell counts ([1]; 1st week (LC50), 7 d): 38600 and 25400 and 22800
- cell counts, Mean value ([1]; 1st week (LC50), 7 d): 28933
- cell counts ([1]; 2nd week (recovery), 0 h): 57000 and 58000 and 53000
- cell counts, Mean value ([1]; 2nd week (recovery), 0 h): 56000
- cell counts ([1]; 2nd week (recovery), 24 h): 26000 and 31000 and 39000
- cell counts, Mean value ([1]; 2nd week (recovery), 24 h): 32000
- cell counts ([1]; 2nd week (recovery), 48 h): 35000 and 38000 and 30000
- cell counts, Mean value ([1]; 2nd week (recovery), 48 h): 34333
- cell counts ([1]; 2nd week (recovery), 4 d): 39000 and 31000 and 26000
- cell counts, Mean value ([1]; 2nd week (recovery), 4 d): 32000
- cell counts, Mean value ([1]; 2nd week (recovery), 7 d): 35000
- cell counts ([2]; 1st week (LC50), 0 h): 133000 and 117500 and 123000
- cell counts, Mean value ([2]; 1st week (LC50), 0 h): 124500
- cell counts, Mean value ([2]; 1st week (LC50), 24 h): 106333
- cell counts ([2]; 1st week (LC50), 48 h): 175000 and 109000 and 114000
- cell counts, Mean value ([2]; 1st week (LC50), 48 h): 132667
- cell counts ([2]; 1st week (LC50), 4 d): 84000 and 72500 and 56000
- cell counts, Mean value ([2]; 1st week (LC50), 4 d): 70833
- cell counts ([2]; 1st week (LC50), 7 d): 35000 and 26000
- cell counts, Mean value ([2]; 1st week (LC50), 7 d): 32000
- cell counts, Mean value ([2]; 2nd week (recovery), 0 h, mean value): 44000
- cell counts ([2]; 2nd week (recovery), 0 h, single count): 44000 and 53000 and 35000
- cell counts, Mean value ([2]; 2nd week (recovery), 24 h, mean value): 17667
- cell counts, Mean value ([2]; 2nd week (recovery), 48 h, mean value): 30667
- cell counts ([2]; 2nd week (recovery), 48 h, single count): 35000 and 31000 and 26000
- cell counts, Mean value ([2]; 2nd week (recovery), 4 d, mean value): 16667
- cell counts ([2]; 2nd week (recovery), 4 d, single count): 15000 and 12500
- cell counts, Mean value ([2]; 2nd week (recovery), 7 d, mean value): 11500
- cell counts, Mean value ([3]; 1st week (LC50), 0 h): 8000
- cell counts ([3]; 1st week (LC50), 0 h): 9000 and 7000
- cell counts, Mean value ([3]; 1st week (LC50), 24 h): 15500
- cell counts ([3]; 1st week (LC50), 24 h): 15000 and 16000
- cell counts, Mean value ([3]; 1st week (LC50), 48 h): 10500
- cell counts ([3]; 1st week (LC50), 48 h): 10000 and 11000
- cell counts, Mean value ([3]; 1st week (LC50), 4 d): 4500
- cell counts ([3]; 1st week (LC50), 4 d): 6000 and 3000
- cell counts, Mean value ([3]; 1st week (LC50), 7 d): 11500
- cell counts ([3]; 1st week (LC50), 7 d): 11000 and 12000
- cell counts, Mean value ([3]; 2nd week (recovery), 0 h): 10500
- cell counts ([3]; 2nd week (recovery), 0 h): 10000 and 11000
- cell counts, Mean value ([3]; 2nd week (recovery), 48 h): 8000
- cell counts ([3]; 2nd week (recovery), 48 h): 10000 and 6000
- cell counts, Mean value ([3]; 2nd week (recovery), 4 d): 5500
- cell counts ([3]; 2nd week (recovery), 4 d): 4000 and 7000
- cell counts ([3]; 2nd week (recovery), 7 d): 18000 and 9000
- The cytotoxicity ([4]; 0 h): 0.6095
- The viability ([4]; 0 h): 0.3905
- The absorbance, group - Blank ([4]; 0 h): 0.1760
- The absorbance, Mean value ([4]; 0 h): 0.4394
- The absorbance ([4]; 0 h): 0.4452 and 0.4456
- The cytotoxicity ([4]; 12 h): −0.2604
- The viability ([4]; 12 h): 1.2604
- The absorbance, group - Blank ([4]; 12 h): 1.5590
- The absorbance, Mean value ([4]; 12 h): 1.8224
- The absorbance ([4]; 12 h): 1.512 and 1.5452
- The cytotoxicity ([4]; 24 h): −0.0831
- The viability ([4]; 24 h): 1.0831
- The absorbance, group - Blank ([4]; 24 h): 2.2745
- The absorbance, Mean value ([4]; 24 h): 2.5379
- The cytotoxicity ([4]; 48 h): 0.5671
- The viability ([4]; 48 h): 0.4329
- The absorbance, group - Blank ([4]; 48 h): 1.1834
- The absorbance, Mean value ([4]; 48 h): 1.4468
- The absorbance ([4]; 48 h): 1.6834 and 1.3166
- The cytotoxicity ([4]; 4 d): −0.3186
- The viability ([4]; 4 d): 1.3186
